# Measured values from US20070254864A1, “CHROMIUM COMPLEXES” (Mandrillus Pharma, LLC, priority 2006, published 2007).
# Tested on: db/db mice (BKS.Cg-m+/+Lepr^db/J)
# Assay: In vivo efficacy: control of body mass in db/db mice
# Conditions: five week old at start, ad libitum p.o. in drinking water (5 mM chromium, pH 5.8), on average 1 mg/kg/day, over 22 weeks, control mice receiving water reached 43 g
# Protocol: The mice were otherwise fed normal chow. Over the course of 22 weeks, the mice consumed on average 1 mg/kg/day of the compound. Mice on treatment reached an average mass of 37 g, while control mice receiving water reached an average mass of 43 g.
substance,measurement,value
Chromium Quinolinate [Example 1],average mass reached,37 g
